Measured values reported in patent US7692030B2, “Conjugates of artemisinin-related endoperoxides and hydrazone derivatives for the treatment of cancer” (University of Washington, priority 2006, dated 2010).

Experiments:
human leukemia cells = details: cited from earlier work
[1] = system: DAOY medulloblastoma cells; experiment: DAOY medulloblastoma cells, MTT assay and light microscopy; type: cell-based; details: after 24 h treatment; each treatment had holo-Tf (20 μg/well)
Procedure: The compound ART-Phe-Sal was tested on DAOY medulloblastoma cells using the MTT assay. DAOY Medulloblastoma cells (5,000 cells/200 μL) was seeded on a 96 well plate and incubated for 24 h at 37° C. Cell culture medium was removed after 24 h and 150 μL of medium with treatment was added. Each experimental treatment had holo-Tf (20 μg/well). Treatment assay was viewed under light microscope after 24 h.
Treatment medium was removed after 48 h, and 100 μL of cell medium was added. MTT Reagent (10 μL, 12 mM) was added to each well. This solution was incubated at 37° C. for 4 h. Isopropanol (100 μL) was added to each well to lyse the cells, which were then incubated at 4° C. for 30 m. After incubation each well was plunged (3×200 μL) to ensure the cells were lysed. The incubated medium with MTT reagent was then centrifuged at 13,000 RPM in an eppendorph centrifuge for 3 minutes at room temperature. 100 μL of supernatant was read in a plate reader at λ=570 nm. FIG. 13 compares the effect of dihydroartemisinin (DHA) and ART-Phe-Sal on DAOY medulloblastoma cell line. The concentration of holo-Tf was 1.7 μM.

C[C@@H]1CC[C@H]2[C@@H](C)C(=O)O[C@@H]3O[C@@]4(C)CC[C@@H]1[C@]32OO4 [Artemisinin]
therapeutic index (toxicity towards cancer cells versus normal cells) (human leukemia cells): approximately 100

holo-Tf: Human holotransferrin (Sigma Chemicals), iron carrying protein added to the cells
cell shrinkage under light microscope [1]: Moderate cell shrinkage
